Here are results for 27 molecules from US20160045505A1, “COMPOUNDS AND COMPOSITIONS FOR THE TREATMENT OF PARASITIC DISEASES” (NOVARTIS AG, priority 2013, published 2016).

Like-named read-outs stand apart in the source and are kept apart here.

Test [1] concerns Trypanosoma brucei Lister 427 strain, bloodstream form. The test can be described thus: Assay for proliferation of kinetoplastid parasite Trypanosoma brucei (Cell Titer Glo, 48 hours). The note with it: Trypanosoma brucei, read-out: T. brucei EC50. The format is cell-based. The method, boiled down: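 Bloodstream-form T. brucei Lister 427 in HMI-9 medium was exposed to compound (DMSO vehicle) for 48 hours at 37° C, 5% CO2. Parasite growth was read as ATP by CellTiter-Glo luminescence, with EC50 calculated from percent inhibition.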
A general note: Cellular ATP, detected with luciferase, serves as a proxy for viable cell number.

Test [2] relates to Trypanosoma cruzi amastigotes (Tulahuen strain expressing Lac-Z) cultured in 3T3 fibroblast cells. The test can be described thus: microbe, parasite or virus in culture. The format is cell-based. The note with it: Trypanosoma cruzi, TULAHUEN, Fibroblast, T. cruzi amastigotes in 3T3 fibroblast cells, read-out: T cruzi EC50.
Test [3] relates to Leishmania donovani axenic amastigote parasites. In words: Leishmania donovani axenic amastigote proliferation assay (Cell TiterGlo luminescence, 2 day incubation). The format is cell-based. The note with it: Leishmania donovani, read-out: L. donovani amastigotes EC50.
For test [4], the system named is L. donovani HU3 strain in mouse peritoneal macrophages. The test can be described thus: Assay for proliferation of Leishmania parasites in infected mouse peritoneal macrophages (SybrGreen staining, high-content imaging, 5 days). The format is cell-based, Leishmania donovani. The note with it: Leishmania donovani, Peritoneal macrophage, L. donovani in mouse peritoneal macrophages, read-out: L. donovani Macrophage EC50.

[5] abbreviates: T. brucei Lister 427 bloodstream form, inhibition of proliferation.
Where [6] appears, read: axenic amastigotes, inhibition of proliferation.
[7] abbreviates: T. brucei Lister 427 bloodstream form.

Regarding `CC(=O)Nc1cnc2nc(-c3cc(NC(=O)c4cnc(C)o4)ccc3F)cn2c1` [Compound 206], the EC50 is > 50000 nM in test [1] (setting [5]), > 20000 nM in test [2] (inhibition of proliferation), 3190 nM in test [3] (setting [6]) and > 50000 nM in test [4] (inhibition of proliferation).
Take `Cc1ncoc1C(=O)Nc1ccc(Cl)c(-c2cn3cc(NC(=O)OC(C)C)cnc3n2)c1` [Compound 53]: the EC50 in test [1] (setting [5]) was 386 nM; in test [2] (inhibition of proliferation), 572 nM; in test [3] (setting [6]), 448 nM; in test [4] (inhibition of proliferation) it was 6270 nM.
On to `Cc1nc(C)c(C(=O)Nc2ccc(F)c(-c3cn4cc(C(C)c5ccccc5)cnc4n3)c2)o1` (stereo not drawn) [Compound 420], for which the EC50 in test [1] (setting [7]) turned out to be 520 nM; in test [2], 307 nM; in test [3] (L. donovani axenic amastigotes), 830 nM; in test [4], 1090 nM.
Taken in the same sequence, the figures for `Cc1nc(C)c(C(=O)Nc2ccc(F)c(-c3cn4cc(-c5ccccc5S(C)(=O)=O)cnc4n3)c2)o1` [Compound 397] were 68 nM, 200 nM, 337 nM and 448 nM.
Taken in the same sequence, the figures for `Cc1nc(C)c(C(=O)Nc2ccc(F)c(-c3cn4cc(-c5ccncc5F)cnc4n3)c2)o1` [Compound 444] were 25 nM, 50 nM, 86 nM and 183 nM.
Consider `Cc1cccc(-c2cnc3nc(-c4cc(NC(=O)N5CCCC5)ccc4F)cn3c2)n1` [Compound 455, N-(4-fluoro-3-(6-(6-methylpyridin-2-yl)imidazo[1,2-a]pyrimidin-2-yl)phenyl)pyrrolidine-1-carboxamide], for which the EC50 was found to be 134 nM in test [1] (setting [7]), 215 nM in test [2], 225 nM in test [3] (L. donovani axenic amastigotes) and 681 nM in test [4].
For `Cc1nc(C)c(C(=O)Nc2ccc(F)c(-c3cn4cc(NC(=O)C5(C)CCC5)cnc4n3)c2)o1` [Compound 114], the EC50 came out at 105 nM in test [1] (setting [5]), 1070 nM in test [2] (inhibition of proliferation), 143 nM in test [3] (setting [6]) and 266 nM in test [4] (inhibition of proliferation).
Taken in the same sequence, the figures for `CCC(C)C(=O)Nc1ccc(F)c(-c2cn3cc(NC(=O)OC(C)C)cnc3n2)c1` (stereo not drawn) [Compound 104] were 1210 nM, 1340 nM, 2390 nM and > 50000 nM.
As to `CC(C)CN(C)C(=O)Nc1ccc(Cl)c(-c2cn3cc(NC(=O)OC(C)C)cnc3n2)c1` [Compound 249], the EC50 in test [1] was determined as 4070 nM; in test [2] (inhibition of proliferation), 1340 nM; in test [3] (setting [6]), 3370 nM; in test [4] (inhibition of proliferation) it was 5550 nM.
For the molecule `Cc1nc(C(=O)Nc2ccc(Cl)c(-c3cn4cc(NC(=O)OC(C)C)cnc4n3)c2)c(C)o1` [Compound 46], the EC50 in test [1] (setting [5]) was 3010 nM; in test [2] (inhibition of proliferation), 262 nM; in test [3] (setting [6]), 1390 nM; in test [4] (inhibition of proliferation), 4990 nM.
Taken in the same sequence, the figures for `Cc1nc(C)c(C(=O)Nc2ccc(F)c(-c3cn4cc(-c5ccc(CN(C)C)cc5)cnc4n3)c2)o1` [Compound 360] were 116 nM, 252 nM, 3370 nM and 450 nM.
Regarding `Cc1nc(C)c(C(=O)Nc2ccc(F)c(-c3cn4cc(-c5cncc(C(C)C)c5)cnc4n3)c2)o1` [Compound 438], the EC50 in test [1] (setting [7]) was 109 nM; in test [2], 146 nM; in test [3] (L. donovani axenic amastigotes) it was 141 nM; in test [4], 282 nM.
Take `Cc1nc(C)c(C(=O)Nc2ccc(F)c(-c3cn4cc(-c5cccnc5)cnc4n3)c2)o1` [Compound 395]: the EC50 in test [1] (setting [7]) is 45 nM; in test [2] it was 153 nM; in test [3] (L. donovani axenic amastigotes) it was 109 nM; in test [4], 187 nM.
Take `Cc1nc(C)c(C(=O)Nc2ccc(F)c(-c3cn4cc(-c5ccn[nH]5)cnc4n3)c2)o1` [Compound 369]: the EC50 is 154 nM in test [1] (setting [5]), 988 nM in test [2] (inhibition of proliferation), 282 nM in test [3] (setting [6]) and 294 nM in test [4] (inhibition of proliferation).
For `CC(C)OC(=O)Nc1cnc2nc(-c3cc(NC(=O)N(C)CC(F)(F)F)ccc3Cl)cn2c1` [Compound 255] the same measures were 122 nM, 329 nM, 364 nM and 502 nM.
As to `COc1cccnc1Nc1ccc(F)c(-c2cn3cc(NC(=O)OC(C)C)cnc3n2)c1` [Compound 498], the EC50 is 478 nM in test [1] (setting [7]), 1340 nM in test [2], 849 nM in test [3] (L. donovani axenic amastigotes) and 28000 nM in test [4].
Take `CC1(O)CN(c2cnc3nc(-c4cc(NC(=O)N5CCCC5)ccc4Cl)cn3c2)C1` [Compound 489]: the EC50 in test [1] (setting [7]) amounted to 152 nM; in test [2], 6710 nM; in test [3] (L. donovani axenic amastigotes) it was 1770 nM; in test [4], 7790 nM.
For the molecule `Cc1nc(C)c(C(=O)Nc2ccc(F)c(-c3cn4cc(NC(=O)C5(C)CC5)cnc4n3)c2)o1` [Compound 115], the EC50 in test [1] (setting [5]) stood at 54 nM; in test [2] (inhibition of proliferation), 410 nM; in test [3] (setting [6]), 73 nM; in test [4] (inhibition of proliferation), 93 nM.
Regarding `Cc1nc(C)c(C(=O)Nc2ccc(F)c(-c3cn4cc(-c5ccc(CCN(C)C)cc5)cnc4n3)c2)o1` [Compound 450], the EC50 in test [1] (setting [7]) was 499 nM; in test [2], 397 nM; in test [3] (L. donovani axenic amastigotes) it was 4620 nM; in test [4], 2990 nM.
Taken in the same sequence, the figures for `O=C(Nc1ccc(F)c(-c2cn3cc(-c4cccnc4)cnc3n2)c1)N1CC(F)(F)C1` [Compound 402] were 11 nM, 251 nM, 69 nM and 285 nM.
With `CC(C)OC(=O)Nc1ccc(F)c(-c2cn3cc(-c4ccccc4)cnc3n2)c1` [Compound 331], the EC50 is 116 nM in test [1] (setting [5]), 53 nM in test [2] (inhibition of proliferation), 396 nM in test [3] (setting [6]) and 360 nM in test [4] (inhibition of proliferation).
For the molecule `Cc1nc(C)c(C(=O)Nc2ccc(F)c(-c3cn4cc(-c5cn(C(C)C)cn5)cnc4n3)c2)o1` [Compound 428], the EC50 in test [1] (setting [7]) was 161 nM; in test [2], 451 nM; in test [3] (L. donovani axenic amastigotes), 100 nM; in test [4], 291 nM.
For `O=C(Nc1ccc(F)c(-c2cn3cc(-c4cccnc4)cnc3n2)c1)N1CC[C@@H](F)C1` [Compound 408] the same measures were 18 nM, 237 nM, 78 nM and 246 nM.
Consider `CC(C)Nc1cnc2nc(-c3cc(NC(=O)N4CCC4)ccc3F)cn2c1` [Compound 564], for which the EC50 in test [1] (setting [7]) came to 56 nM; in test [2], 204 nM; in test [3] (L. donovani axenic amastigotes) it was 212 nM; in test [4], 290 nM.
For `Cc1nc(C)c(C(=O)Nc2ccc(F)c(-c3cn4cc(NC5CCC5)cnc4n3)c2)o1` [Compound 482], the EC50 in test [1] (setting [7]) worked out at 494 nM; in test [2], 547 nM; in test [3] (L. donovani axenic amastigotes) it was 569 nM; in test [4], 1010 nM.
Taken in the same sequence, the figures for `Cc1nc(C)c(C(=O)Nc2ccc(F)c(-c3cn4cc(N5CCC[C@@H]5C(F)(F)F)cnc4n3)c2)o1` [Compound 492] were 472 nM, 310 nM, 841 nM and 1520 nM.
For the molecule `Cc1nc(C)c(C(=O)Nc2ccc(F)c(-c3cn4cc(-c5cccc(N6CCN(C(=O)OC(C)(C)C)CC6)n5)cnc4n3)c2)o1` [Compound 368], the EC50 in test [1] (setting [5]) was determined as 498 nM; in test [2] (inhibition of proliferation) it was 135 nM; in test [3] (setting [6]), 463 nM; in test [4] (inhibition of proliferation) it was 905 nM.

Broadly, the EC50 is the concentration that produces a half-maximal response.
